Earlier results as cited in patent US5468754A, “11,7 substituted camptothecin derivatives and formulations of 11,7 substituted camptothecin derivatives and methods for uses thereof” (priority 1994, dated 1995).
Entries after “also recorded” stand apart in the source; their conditions may differ. Like-named read-outs stand apart in the source and are kept apart here.

Legend:
[1] = cited from earlier work
[2] = system: Breast; conditions: Clavel et al, 90 min QDx3 Q21 days; cited from earlier work
[3] = system: Mesothelioma; conditions: Clavel et al, 90 min QDx3 Q21 days; cited from earlier work
[4] = system: esophagus; conditions: Culine et al, 90 min, 150 mg/m2/wk (50-150); cited from earlier work
[5] = system: cervix; conditions: cited from earlier work
[6] = system: renal; conditions: Culine et al, 90 min, 150 mg/m2/wk (50-150); cited from earlier work
[7] = system: ovarian; conditions: Culine et al, 90 min, 150 mg/m2/wk (50-150); cited from earlier work
[8] = system: Colon Ca; conditions: cited from earlier work
[9] = Ohe et al; 120 hr infusion Q3 wks, 40 mg/m2/d (5-40); cited from earlier work
[10] = cited from earlier work; remark: listed apart in the source
[11] = system: Untreated Non Small Cell Lung Cancer; conditions: Fukuoka et al; 100 mg/m^2; 73 pts; cited from earlier work
[12] = system: Refractory or Relapsed Small Cell Lung Cancer; conditions: Masudu et al; 100 mg/m^2 weekly; 16 pts; cited from earlier work
[13] = system: Small Cell Lung Cancer; conditions: Negoro et al, 100 mg/m^2/week, 41 pts, cited from earlier work
[14] = system: Leukemia/Lymphoma; conditions: Ohono et al, cited from earlier work
[15] = system: Colon cancer; conditions: Shimada et al; 100 mg/m^2/week or 150 mg/m^2/Q 2 wks; 17 pts; cited from earlier work
[16] = system: Cervical cancer; conditions: Takeuchi et al; 100 mg/m^2 weekly, 150 mg/m^2 weeks; 69 pts; cited from earlier work
[17] = 5-day continuous intravenous infusion; cited from earlier work
[18] = patients; cited from earlier work
[19] = system: Topoisomerase I, purified from human colon carcinoma cells; conditions: cited from earlier work
[20] = system: Topoisomerase I, purified from calf thymus; conditions: cited from earlier work
[21] = compared with parent compound camptothecin; cited from earlier work
[22] = system: Human lung cancer cell lines; conditions: human lung cancer cell lines vs normal cells; cited from earlier work
[23] = system: xenografts of human tumors; conditions: Kawato et al., nude mice; cited from earlier work
[24] = compared with parent compound camptothecin; cited from earlier work; remark: listed apart in the source
[25] = cited from earlier work; remark: listed apart in the source
[26] = Clavel et al, 90 min, QDx3 Q21 days, 115 mg/m2/d (33-115), 37 pts
[27] = Culine et al, 90 min, Q21 days, 150 mg/m2/wk (50-150), 59 pts
[28] = Negoro et al, 30 min infusion weekly, 100 mg/m2 (50-150), 17 pts
[29] = Ohe et al, 120 hr CI Q3 wks, 40 mg/m2/d (5-40), 36 pts
[30] = Rothenberg et al, QWx4 Q42 days, 180 mg/m2/wk (50-180), 32 pts
[31] = Rowinsky et al, 90 min infusion Q21 day, 240 mg/m2 (100-345), 32 pts
[32] = Negoro et al, Small Cell Lung Cancer, 100 mg/m^2/week
[33] = Ohono et al, Leukemia/Lymphoma, 62 pts
[34] = Shimada et al, Colon cancer, 17 pts
[35] = Takeuchi et al, Cervical cancer, 69 pts

In the case of `CCc1c2c(nc3ccc(OC(=O)N4CCC(N5CCCCC5)CC4)cc13)-c1cc3c(c(=O)n1C2)COC(=O)[C@]3(O)CC` [CPT-11], the Toxicity [1, 26] is given as “diarrhea; also recorded: nausea; also recorded: vomiting; also recorded: alopecia”, the “Toxicity (Dose Limiting Toxicity)” value [1, 26] is given as “Neutropenia” and the Toxicity [1, 27] is given as “vomiting; also recorded: alopecia; also recorded: fatigue; also recorded: stomatitis”. The “Toxicity (Dose Limiting Toxicity)” value [1, 27] was “Neutropenia; also recorded: diarrhea”, the Toxicity [1, 28] was “N/V and alopecia and liver” and the “Toxicity (Dose Limiting Toxicity)” value [1, 28] was “Neutropenia; also recorded: Diarrhea”. For the same compound, the Toxicity [1, 29] was “nausea; also recorded: vomiting; also recorded: thromobo-; also recorded: anemia; also recorded: liver”, the “Toxicity (Dose Limiting Toxicity)” value [1, 29] was “Diarrhea” and the “major reported, dose-limiting toxicities” value ([1]; Phase I and Phase II clinical trials of CPT-11) was “Neutropenia and diarrhea”. For the same compound, the Toxicity [1, 30] was “Neutropenia; also recorded: nausea; also recorded: vomiting; also recorded: alopecia”, the “Toxicity (Dose Limiting Toxicity)” value [1, 30] was “Diarrhea” and the Toxicity [1, 31] was “vomiting and diarrhea and pain and flushing”. The “Toxicity (Dose Limiting Toxicity)” value [1, 31] was “Neutropenia”, the “Tumor response (partial responses)” value [2] was 1 PR and the “Tumor response (partial responses)” value [3] was 1 PR. For the same compound, the “Tumor response (partial responses)” value [4] was 1 PR, the “Tumor response (partial responses)” value ([5]; Culine et al, cervix, 90 min, 150 mg/m2/wk (50-150)) was 1 PR and the “Tumor response (partial responses)” value ([5]; Rowinsky et al, Cervix Ca, 90 min infusion Q21 day, 240 mg/m2 (100-345)) was 1 PR. The “Tumor response (partial responses)” value [6] was 1 PR, the “Tumor response (partial responses)” value [7] was 1 PR and the “Tumor response (partial responses)” value ([8]; Rothenberg et al, QWx4 Q42 days, 180 mg/m2/wk (50-180)) was 2 PRs. For the same compound, the “Tumor response (partial responses)” value ([8]; Rowinsky et al, 90 min infusion Q21 day, 240 mg/m2 (100-345)) was 1 PR, the Tumor response [9] was “None” and the Toxicity ([10]; Fukuoka et al, Untreated Non Small Cell Lung Cancer, 100 mg/m^2) was “Neutropenia; also recorded: diarrhea; also recorded: nausea; also recorded: vomiting; also recorded: anorexia; also recorded: alopecia”. The pneumonitis ([10]; Masudu et al, 100 mg/m^2 weekly, 16 pts) was 12.5%, the Toxicity ([10]; Masudu et al, Refractory or Relapsed Small Cell Lung Cancer, 100 mg/m^2 weekly) was “Neutropenia; also recorded: diarrhea” and the N/V [10, 32] was 61.5%. For the same compound, the alopecia [10, 32] was 40.0%, the diarrhea [10, 32] was 53.8% and the Gastrointestinal [10, 33] was 76%. The Toxicity [10, 33] was “Thromocytopenia”, the N/V [10, 34] was 35% and the diarrhea [10, 34] was 24%. For the same compound, the N/V [10, 35] was 51%, the alopecia [10, 35] was 38.1% and the diarrhea [10, 35] was 39.1%. For the same compound, the “RESPONSE (PRs)” value [11] was 31.9%, the “RESPONSE (PRs, patients)” value [11] was 23/72 and the “RESPONSE (PRs)” value [12] was 47%. The “RESPONSE (PRs, patients)” value [12] was 7/15, the RESPONSE ([13]; 2 CRs and 7 PRs) was 33.3% and the “RESPONSE (CRs)” value [13] was 2 CRs. For the same compound, the “RESPONSE (PRs)” value [13] was 7 PRs, the “RESPONSE (RR)” value ([14]; 20 mg/m^2 bid x7) was 25 % RR and the “RESPONSE (PR)” value ([14]; 40 mg/m^2 x5) was 34 % PR. The RESPONSE ([14]; 200 mg Q3) was “No resp”, the RESPONSE [15] was 46% and the “RESPONSE (PR, patients)” value [15] was 6/17. For the same compound, the “RESPONSE (CR)” value [16] was “SCR”, the “RESPONSE (PR)” value [16] was 8 PR and the “RESPONSE (RR)” value [16] was 23.6%. The “conversion of CPT-11 to SN38” value [17] was “saturable process”, the “variability of metabolic conversion of CPT-11 to SN38” value [18] was “large range of interpatient variability; also recorded: varies from patient to patient” and the “inhibition of Topoisomerase I” value [19] was “inhibited”. The “inhibition of Topoisomerase I” value [20] was “inhibited”, the antitumor activity [21] was “retain the significant antitumor activity of the parent compound” and the “conversion of CPT-11 to SN38” value [22] was “convert less CPT-11 to SN38 than normal cells”. For the same compound, the “sensitivity of human tumors vs their ability to produce SN38” value [23] was “independent of their ability to produce SN38”, the Toxicity [24] was “less sporadic toxicities” and the “Fractional amount of lactone species, CPT-11 CpMax Based” value (“Fractional amount of lactone species” for short) ([25]; 50 mg/m2 single dose I.V.) was 0.51. For the same compound, the “Fractional amount of lactone species” value ([25]; 80 mg/m2 single dose I.V.) was 0.44, the “Fractional amount of lactone species” value ([25]; 100 mg/m2 single dose I.V.) was 0.53 and the “Fractional amount of lactone species” value ([25]; 125 mg/m2 single dose I.V.) was 0.55. For the same compound, the “Fractional amount of lactone species” value ([25]; 150 mg/m2 single dose I.V.) was 0.42, the “Fractional amount of lactone species” value ([25]; 180 mg/m2 single dose I.V.) was 0.42 and the “overall fractional concentration of the lactone species” value ([25]; through a range of doses, total AUC and CpMax data) was “fairly constant through a range of doses”.
